Data reported in article PMC9081086, “Stapling strategy enables improvement of antitumor activity and proteolytic stability of host-defense peptide hymenochirin-1B” (RSC Advances, 2018).
Positions of bridges follow the written chain, without caps; N, C: chain ends. Non-standard residues stand in square brackets, D forms with d. Residues, ends and D or L forms follow the SMILES beside them. S5 = C=CCCC[C@](C)(N)C(=O)O

Assays:
[1] = test system: human normal Lung cell BEAS-2; test: MTT toxicity against normal cells, BEAS-2B; assay type: cell-based; conditions: 96 h
Protocol: (§1) Anti-tumor activity was evaluated by the standard MTT assay with a slight modification measuring the median inhibitory concentration (IC50) values.[35] HCT-116 cells, HepG2 cells and A549 cells were plated in triplicate wells into a 96-well plate at 5 × 10^3/well and cultured routinely for 24 h. Cells were incubated with increasing concentrations of hymenochirin-1B and its analogs (0.1–30 μM) and continued to culture with DMEM plus 10% FBS at 37 °C and 5% CO2. After being incubated for 96 h, the absorbance A value was determined by MTT at 540 nm. The untreated HCT-116 cells, HepG2 cells and A549 cells were used as control. Each experiment was performed in duplicate. The inhibitory rate was calculated according to the following formula: inhibitory rate = (a value of the control group − a value of the study group)/a value of the control group × 100%.
(§2) To further research the selectivity of these peptides towards cancer cells over normal cells. The growth-inhibitory activities of peptides were evaluated using the 3-(4,5-dimethylthiazol-2-yl)-2,5-diphenyltetrazolium bromide (MTT) assay against three normal cells,[35] namely, human normal liver cell LO-2, human normal Lung cell BEAS-2 and human normal kidney cell 293 T (Table S2 ^†). The experiments procedure was performed just same as growth inhibition of the peptides against tumor cells. […] It might be due to the higher averaged hydrophobicity produced by six or nine additional methylene and two olefinic carbons to the peptide to increase toxicity to human normal cells. This situation may be resolved through the addition of polar character and glycosylation into the sequence to decrease the averaged hydrophobicity to improve the selectivity of these peptides towards cancer cells over normal cells. These modifications of these peptides are under way, and the present study was focused on the improved anti-tumor activity of template peptide hymenochirin-1B.

[2] = test system: human normal kidney cell 293 T; test: MTT toxicity against normal cells, 293T; assay type: cell-based; conditions: 96 h
Protocol: as §1, §2

[3] = test system: human normal liver cell LO-2; test: MTT toxicity against normal cells, LO-2; assay type: cell-based; conditions: 96 h
Protocol: as §1, §2

[4] = Circular dichroism, α-helicity; assay type: physicochemical; conditions: CD, TFE/water (1:1), 50 μM peptide, 25 °C, 1 mm cuvette, calculated from [θ]222
Protocol: The linear and stapled peptides were dissolved in the trifluoroethanol (TFE) and water (1 : 1) to a final concentration of 50 μM, respectively. The CD spectra were obtained with 1 mm quartz cuvette on Jasco-815 spectropolarimeter at 25 °C. The measurement parameters were set up as follows: wavelength, 185–260 nm; step resolution, 0.5 nm; speed, 20 nm min^−1. All spectra were converted to a uniform scale of molar ellipticity after background subtraction. The curves were smoothed using standard parameters. The ellipticity in the acquired CD spectra was converted to the molar ellipticity using the equation: [θ] = θ/(10 × c × l), where, [θ] is the Molar ellipticity (deg cm^2. d mol^−1), θ is the observed ellipticity corrected for the buffer at a given wavelength (m deg), c is the molar concentration and l is the path length (cm). The helicity of each peptide was calculated as described in a literature based on the ellipticity of the peptide's spectrum at 222 nm and the number of amino acids in the peptide sequence.
Circular dichroism (CD) spectroscopy was used to investigate the secondary structures of the stapled and template peptides to probe structural changes induced by conformation constraint in a membrane-like milieu, including […] (TFE) and water (1 : 1). […] (Table 1, ESI ^†).

[5] = Protease resistance (trypsin degradation, HPLC); assay type: in vitro ADME; conditions: trypsin solution (5 ng/µL), room temperature, HPLC 214 nm, duplicate; for half-life at 0.1 mM: trypsin 5 ng/μL in 50 mM PBS with 2 mM CaCl2, pH 7.4 (method: trypsin buffer pH 8), peptide 0.1 mM final, sampled 0–3.5 h, HCl quench, read-out: half-life (t1/2) toward trypsin degradation (converted)
Protocol: The peptides were dissolved in PBS buffer solutions (50 mM, pH = 7.4) to a final concentration of 1 mM, respectively. Trypsin was dissolved in PBS buffer (50 mM, containing 2 mM of CaCl2, pH = 8) to a final concentration of 5 ng μL^−1. Then the peptide solutions (100 μL) were incubated with trypsin solution (1 mL) at room temperature. 100 μL of digestion mixture was taken at the 0, 0.5, 1.0, 1.5, 2.0, 2.5, 3.0, and 3.5 h marks, then quenched with 20 μL of hydrochloric acid (1 M). The solution of the trypsin peptide fragments was monitored by HPLC at different time to determine the fraction of protease degradation at 214 nm. Each experiment was performed in duplicate.
To assess the protease stability of the stapled peptides, we measured their susceptibility toward trypsin degradation at room temperature in PBS buffer (pH 7.4) with monitored by HPLC. Trypsin is a protease that predominantly cleaves at the carboxyl terminus of positive charge amino acids, such as arginine and lysine. […] Especially, only about 49% of bicyclic stapled peptide H-10 was cleaved after 3.5 h (Fig. 3 and S4 ^†).
Fig. 3 Proteolytic stability of peptides incubated in trypsin solution (5 ng μL^−1 in 50 mM PBS buffer, pH = 7.4) at a final concentration of 0.1 mM. […] The percent of residual peptide was monitored by Analytic HPLC. All experiments were repeated at least three times. H-0 represents hymenochirin-1B.

[6] = all-hydrocarbon stapling by ring-closing olefin metathesis between S5/S5 (i,i+4) or R8/S5 (i,i+7) olefinic residues, Grubbs 1st-generation catalyst (10 mM in DCE per text; 6 mM per schemes), 2 x 2 h, on Rink Amide MBHA resin; conditions: the molecule shown is the open-chain precursor, 35.0 °C, 4.0 h, 60 steps

SMILES | IC50 (μM) BEAS-2B, toxicity against normal cells [1] [µM] | IC50 (μM) 293T, toxicity against normal cells [2] [µM] | IC50 (μM) LO-2, toxicity against normal cells [3] [µM] | Helicity (%) [4] [%] | half-life at 0.1 mM [5] [h] | metabolised at 3.5 h, 0.1 mM ([5]; trypsin 5 ng/μL in 50 mM PBS, pH 7.4, peptide 0.1 mM final, 3.5 h, read-out: peptide cleaved by trypsin after 3.5 h) [%] | ring closure, overall yield ([6]; 33-membered ring, 1,2-dichloroethane) [%] | ring closure, overall yield ([6]; 21-membered ring, 1,2-dichloroethane) [%]
CC[C@H](C)[C@H](N)C(=O)N[C@@H](CCCCN)C(=O)N[C@@H](CC(C)C)C(=O)N[C@@H](CO)C(=O)N1CCC[C@H]1C(=O)N[C@@H](CCC(=O)O)C(=O)N[C@H](C(=O)N[C@@H](CCCCN)C(=O)N[C@@H](CC(=O)O)C(=O)N[C@@H](CC(N)=O)C(=O)N[C@@H](CC(C)C)C(=O)N[C@@H](CCCCN)C(=O)N[C@@H](CCCCN)C(=O)N[C@H](C(=O)N[C@@H](CC(C)C)C(=O)N[C@@H](CCCCN)C(=O)NCC(=O)N[C@@]1(C)CCCC=CCCC[C@@](C)(C(=O)N[C@H](C(=O)N[C@@H](C)C(=O)N[C@H](C(=O)N[C@@H](C)C(=O)N[C@@H](CCCCN)C(=O)N[C@@H](CCSC)C(=O)N[C@H](C(N)=O)C(C)C)C(C)C)[C@@H](C)CC)NC(=O)CNC(=O)[C@H](CCCCN)NC(=O)[C@H]([C@@H](C)CC)NC1=O)C(C)C)[C@@H](C)O [H-5] (H-IKLSPETKDNLKKVLKG[S5]IKG[S5]IAVAKMV-NH2; staple 18-22) | 5.76 ± 0.32 | 4.70 ± 0.32 | 3.57 ± 0.52 | 69.2 | 2.8 |  |  | 
CC[C@H](C)[C@H](N)C(=O)N[C@@H](CCCCN)C(=O)N[C@@H](CC(C)C)C(=O)N[C@@H](CO)C(=O)N1CCC[C@H]1C(=O)N[C@@H](CCC(=O)O)C(=O)N[C@H](C(=O)N[C@@H](CCCCN)C(=O)N[C@@H](CC(=O)O)C(=O)N[C@@H](CC(N)=O)C(=O)N[C@@H](CC(C)C)C(=O)N[C@@H](CCCCN)C(=O)N[C@@H](CCCCN)C(=O)N[C@H](C(=O)N[C@@H](CC(C)C)C(=O)N[C@@H](CCCCN)C(=O)NCC(=O)N[C@@H](C)C(=O)N[C@H](C(=O)N[C@@H](CCCCN)C(=O)NCC(=O)N[C@@H](C)C(=O)N[C@H](C(=O)N[C@@H](C)C(=O)N[C@H](C(=O)N[C@@H](C)C(=O)N[C@@H](CCCCN)C(=O)N[C@@H](CCSC)C(=O)N[C@H](C(N)=O)C(C)C)C(C)C)[C@@H](C)CC)[C@@H](C)CC)C(C)C)[C@@H](C)O [Hymenochirin-1B] (H-IKLSPETKDNLKKVLKGAIKGAIAVAKMV-NH2) | 9.24 ± 0.25 | 11.12 ± 0.35 | 23.98 ± 0.32 | 48.7 | 0.28 |  |  | 
CC[C@H](C)[C@H](N)C(=O)N[C@@H](CCCCN)C(=O)N[C@@H](CC(C)C)C(=O)N[C@@H](CO)C(=O)N1CCC[C@H]1C(=O)N[C@@]1(C)CCCC=CCCC[C@@](C)(C(=O)N[C@@H](CC(C)C)C(=O)N[C@@H](CCCCN)C(=O)N[C@@H](CCCCN)C(=O)N[C@H](C(=O)N[C@@H](CC(C)C)C(=O)N[C@@H](CCCCN)C(=O)NCC(=O)N[C@@]2(C)CCCC=CCCC[C@@](C)(C(=O)N[C@H](C(=O)N[C@@H](C)C(=O)N[C@H](C(=O)N[C@@H](C)C(=O)N[C@@H](CCCCN)C(=O)N[C@@H](CCSC)C(=O)N[C@H](C(N)=O)C(C)C)C(C)C)[C@@H](C)CC)NC(=O)CNC(=O)[C@H](CCCCN)NC(=O)[C@H]([C@@H](C)CC)NC2=O)C(C)C)NC(=O)[C@H](CC(=O)O)NC(=O)[C@H](CCCCN)NC(=O)[C@H]([C@@H](C)O)NC1=O [H-10] (H-IKLSP[S5]TKD[S5]LKKVLKG[S5]IKG[S5]IAVAKMV-NH2; staple 6-10, 18-22) | 5.52 ± 0.42 | 10.42 ± 0.25 | 8.78 ± 0.32 | 73.3 |  | ~49 |  | 
C=CCCCCCC[C@@](C)(NC(=O)[C@H](CC(=O)OC(C)(C)C)NC(=O)[C@H](CCCCNC(=O)OC(C)(C)C)NC(=O)[C@@H](NC(=O)[C@H](CCC(=O)OC(C)(C)C)NC(=O)[C@@H]1CCCN1C(=O)[C@H](COC(C)(C)C)NC(=O)[C@H](CC(C)C)NC(=O)[C@H](CCCCNC(=O)OC(C)(C)C)NC(=O)[C@@H](NC(=O)OCC1c2ccccc2-c2ccccc21)[C@@H](C)CC)[C@@H](C)OC(C)(C)C)C(=O)N[C@@H](CC(C)C)C(=O)N[C@@H](CCCCNC(=O)OC(C)(C)C)C(=O)N[C@@H](CCCCNC(=O)OC(C)(C)C)C(=O)N[C@H](C(=O)N[C@@H](CC(C)C)C(=O)N[C@@H](CCCCNC(=O)OC(C)(C)C)C(=O)N[C@@](C)(CCCC=C)C(=O)N[C@@H](C)C(=O)N[C@H](C(=O)N[C@@H](CCCCNC(=O)OC(C)(C)C)C(=O)NCC(=O)N[C@@H](C)C(=O)N[C@H](C(=O)N[C@@H](C)C(=O)N[C@H](C(=O)N[C@@H](C)C(=O)N[C@@H](CCCCNC(=O)OC(C)(C)C)C(=O)N[C@@H](CCSC)C(=O)N[C@H](C(N)=O)C(C)C)C(C)C)[C@@H](C)CC)[C@@H](C)CC)C(C)C |  |  |  |  |  |  | 6.51 | 
C=CCCC[C@](C)(NC(=O)[C@H](CCCCNC(=O)OC(C)(C)C)NC(=O)[C@H](CC(C)C)NC(=O)[C@@H](NC(=O)[C@H](CCCCNC(=O)OC(C)(C)C)NC(=O)[C@H](CCCCNC(=O)OC(C)(C)C)NC(=O)[C@H](CC(C)C)NC(=O)[C@H](CC(=O)NC(c1ccccc1)(c1ccccc1)c1ccccc1)NC(=O)[C@H](CC(=O)OC(C)(C)C)NC(=O)[C@H](CCCCNC(=O)OC(C)(C)C)NC(=O)[C@@H](NC(=O)[C@H](CCC(=O)OC(C)(C)C)NC(=O)[C@@H]1CCCN1C(=O)[C@H](COC(C)(C)C)NC(=O)[C@H](CC(C)C)NC(=O)[C@H](CCCCNC(=O)OC(C)(C)C)NC(=O)[C@@H](NC(=O)OCC1c2ccccc2-c2ccccc21)[C@@H](C)CC)[C@@H](C)OC(C)(C)C)C(C)C)C(=O)N[C@@H](C)C(=O)N[C@H](C(=O)N[C@@H](CCCCNC(=O)OC(C)(C)C)C(=O)N[C@@](C)(CCCC=C)C(=O)N[C@@H](C)C(=O)N[C@H](C(=O)N[C@@H](C)C(=O)N[C@H](C(=O)N[C@@H](C)C(=O)N[C@@H](CCCCNC(=O)OC(C)(C)C)C(=O)N[C@@H](CCSC)C(=O)N[C@H](C(N)=O)C(C)C)C(C)C)[C@@H](C)CC)[C@@H](C)CC |  |  |  |  |  |  |  | 18.5
